One experiment has as its target T1, BRD4 BD1 (Homo sapiens, UniProt O60885).
T1 construct: HEK293 cells were transfected using NanoLuc-BRD4-BD1 or NanoLuc-BRD4-BD2 fusion vectors
In words: NanoBRET bromodomain assay, NanoLuc-BRD4-BD1 in HEK293 cells. Format: binding. The procedure: Exemplary compounds of the disclosure are active against BRD4 BD2 and selective over BRD4 BD1. BRD4 is a representative example of the BET family, as the binding sites of all BET family members are structurally similar. […] IC50s and fold selectivity's are determined as described below and are represented in Table 1.
(§1) Plates were then incubated at 37° C.+5% CO2 incubator for 2 hours.
(§2) Fold Selectivity Calculated (IC50 BD1/IC50 BD2).

Another experiment deals with T2, BRD4 BD2 (Homo sapiens, UniProt O60885).
T2 construct: HEK293 cells were transfected using NanoLuc-BRD4-BD1 or NanoLuc-BRD4-BD2 fusion vectors
The experiment in a line: NanoBRET bromodomain assay, NanoLuc-BRD4-BD2 in HEK293 cells. Format: binding. Conditions: for Fold Selectivity BRD4 BD1/BD2: IC50 BD1/IC50 BD2, qualitative if an IC50 is at the upper limit. The procedure: as §1, §2

Experiment [1] concerns experimental autoimmune encephalomyelitis. In words: Experimental autoimmune encephalomyelitis (EAE) model: EAE scores, onset, incidence. The class given is in vivo, C57BI/6 mice. The settings on record: FTY720 (Group 5). The procedure:
(§3) Experimental Method H: EAE in animals treated with a BET inhibitor and vehicle. Animals were assigned to the groups outlined in Table 38.
(§4) Compound A may be formulated as illustrated in Experimental Method A (see Table 2E.). A 40 mg/mL stock solution of Compound A in DMSO was prepared and aliquots stored at −20° C. On each day of preparation an e.g., 0.75 mL aliquot of thawed stock was diluted with an equal volume of DMSO. The remaining vehicle components were added to provide the highest dose and then diluted with vehicle to provide lower doses. A 30 mg/mL stock solution of FTY720 in ethanol was prepared and stored at −20° C. Daily, the stock solution was diluted with room temperature water to a final dosing concentration of 0.6 mg/mL. Formulated Compound A, FTY720 and vehicle were each at room temperature for dosing.
(§5) Female C57BI/6 mice (9 weeks old) were acclimated for seven days prior to study initiation. On Day-1, animals were assigned to groups in a balanced manner to achieve similar average weights across the different groups. Chronic EAE was induced in female C57BI/6 mice following immunization with an emulsion of MOG35-55/CFA on Day 0, followed by an injection of pertussis toxin two hours after the initial immunization. On Day 1, a second injection of pertussis toxin was administered 24 hours after the initial immunization. Mice were injected subcutaneously at two sites on the back with the MOG35-55/CFA emulsion (Hooke Kit™ MOG35-55/CFA Emulsion PTX). The first injection site was located approximately 1 cm caudal of the neckline (upper back), and the second injection site was approximately 2 cm cranial of the base of the tail (lower back). The injection volume was 0.1 mL for each injection. The pertussis toxin was administered at the described times through intraperitoneal injection at a concentration of 85 ng/dose for both injections.
(§6) Body weight was measured three times a week (Monday, Wednesday, and Friday) starting on Day-1. Animals were scored daily for EAE starting on Day 7. In-between scores were assigned when the clinical signs fell between two below defined scores.

Another experiment is described as follows: EAE study: body weight. The class given is in vivo, C57BI/6 mice. Conditions: for Mean Body Weight / Mean Body Weight (% of Day −1): FTY720 (Group 5). On the procedure: as §3, §4, §5, §6

pIC50: −log10 of the molar value. Marks after values point to notes of the source that are not given here.

`Cc1cccc(C)c1Oc1cn(C)c(=O)cc1-c1cn(C)c(=O)c2[nH]c(-c3cnn(CC(F)(F)F)c3)cc12` [Example 13, 4-(5-(2,6-dimethylphenoxy)-1-methyl-2-oxo-1,2-dihydropyridin-4-yl)-6-methyl-2-(1-(2,2,2-trifluoroethyl)-1H-pyrazol-4-yl)-1,6-dihydro-7H-pyrrolo[2,3-c]pyridin-7-one]: the pIC50 on BRD4 BD1 was under 6.00; on BRD4 BD2, 7.30 to 8.00. Further, the “Fold Selectivity BRD4 BD1/BD2” value at BRD4 BD2 is “xxx (Fold >200 and ≤1000)”.
Take `COCc1ccc(-c2cc3c(-c4cc(=O)n(C)cc4-c4ccccc4)cn(C)c(=O)c3[nH]2)cc1` [Example 46, 2-(4-(methoxymethyl)phenyl)-6-methyl-4-(1-methyl-2-oxo-5-phenyl-1,2-dihydropyridin-4-yl)-1,6-dihydro-7H-pyrrolo[2,3-c]pyridin-7-one]: the pIC50 is under 6.00 on BRD4 BD1 and over 8.00 against BRD4 BD2. For the same compound, at BRD4 BD2, the “Fold Selectivity BRD4 BD1/BD2” value is on record as “xxxx (Fold >1000)”.
As for `CSCCn1cc(-c2ccccc2)c(-c2cn(C)c(=O)c3[nH]c(-c4cnn(C(F)(F)F)c4)cc23)cc1=O` [Example 23, 6-methyl-4-(1-(2-(methylthio)ethyl)-2-oxo-5-phenyl-1,2-dihydropyridin-4-yl)-2-(1-(trifluoromethyl)-1H-pyrazol-4-yl)-1,6-dihydro-7H-pyrrolo[2,3-c]pyridin-7-one], on BRD4 BD1, the pIC50 is under 6.00. At BRD4 BD2, the pIC50 was over 8.00 and the “Fold Selectivity BRD4 BD1/BD2” value is “xxxx (Fold >1000)”.
For `Cc1cccc(C)c1Oc1cn(C)c(=O)cc1-c1cn(C)c(=O)c2[nH]c(-c3cc(CO)ccc3F)cc12` [Example 92], the pIC50 at BRD4 BD1 is under 6.00. In addition, at BRD4 BD2, the pIC50 is 7.30 to 8.00; the “Fold Selectivity BRD4 BD1/BD2” value was “xxx (Fold >200 and ≤1000)”.
In the case of `Cn1cc(-c2cccc(CN3CCOCC3)c2)c(-c2cn(C)c(=O)c3[nH]c(-c4ccc(F)cc4F)cc23)cc1=O` [Example 36, 2-(2,4-difluorophenyl)-6-methyl-4-(1-methyl-5-(3-(morpholinomethyl)phenyl)-2-oxo-1,2-dihydropyridin-4-yl)-1,6-dihydro-7H-pyrrolo[2,3-c]pyridin-7-one], on BRD4 BD1, the pIC50 was under 6.00. Besides, at BRD4 BD2, the pIC50 is 7.30 to 8.00; the “Fold Selectivity BRD4 BD1/BD2” value is “xxx (Fold >200 and ≤1000)”.
Consider `Cc1cccc(C)c1Oc1cn(C)c(=O)cc1-c1cn(C)c(=O)c2[nH]c(-c3cnn(CC(F)(F)F)c3C)cc12` [Example 16, 4-(5-(2,6-dimethylphenoxy)-1-methyl-2-oxo-1,2-dihydropyridin-4-yl)-6-methyl-2-(5-methyl-1-(2,2,2-trifluoroethyl)-1H-pyrazol-4-yl)-1,6-dihydro-7H-pyrrolo[2,3-c]pyridin-7-one], for which the pIC50 against BRD4 BD1 was under 6.00; at BRD4 BD2, over 8.00. Moreover, on BRD4 BD2, the “Fold Selectivity BRD4 BD1/BD2” value was “xx (Fold >50 and ≤200)”.
With `CCn1cc(-c2cc(=O)n(C)cc2-c2ccccc2)c2cc(-c3cnn(C(F)(F)F)c3)[nH]c2c1=O` [Example 19, 6-ethyl-4-(1-methyl-2-oxo-5-phenyl-1,2-dihydropyridin-4-yl)-2-(1-(trifluoromethyl)-1H-pyrazol-4-yl)-1,6-dihydro-7H-pyrrolo[2,3-c]pyridin-7-one], the pIC50 at BRD4 BD1 is under 6.00; at BRD4 BD2 it was over 8.00. Further, at BRD4 BD2, the “Fold Selectivity BRD4 BD1/BD2” value is recorded as “xxxx (Fold >1000)”.
`Cn1cc(-c2cc(=O)n(CCOC(F)(F)F)cc2-c2ccccc2)c2cc(-c3cnn(C(F)(F)F)c3)[nH]c2c1=O` [Example 59, 6-methyl-4-(2-oxo-5-phenyl-1-(2-(trifluoromethoxy)ethyl)-1,2-dihydropyridin-4-yl)-2-(1-(trifluoromethyl)-1H-pyrazol-4-yl)-1,6-dihydro-7H-pyrrolo[2,3-c]pyridin-7-one] had a pIC50 at BRD4 BD1 of under 6.00. Further, at BRD4 BD2, the pIC50 is 6.70 to 7.30; the “Fold Selectivity BRD4 BD1/BD2” value was “xx (Fold >50 and ≤200)”.
As to `Cn1cc(-c2cc(=O)n(C3CC3)cc2-c2ccccc2)c2cc(-c3ccc(F)cc3F)[nH]c2c1=O` [Example 49, 4-(1-cyclopropyl-2-oxo-5-phenyl-1,2-dihydropyridin-4-yl)-2-(2,4-difluorophenyl)-6-methyl-1,6-dihydro-7H-pyrrolo[2,3-c]pyridin-7-one], the figures for the pIC50 against BRD4 BD1 and at BRD4 BD2 were under 6.00 and over 8.00, respectively. Moreover, on BRD4 BD2, the “Fold Selectivity BRD4 BD1/BD2” value was “xxxx (Fold >1000)”.
As for `CCCCCCCCc1ccc(CCC(N)(CO)CO)cc1` [FTY720, reference compound], the “Incidence of EAE (%)” value in experiment [1] is 16.7*** %. Besides, the “Mean Day of Onset (SEM)” value in experiment [1] is 18.5 (0.5) Day. For the same compound, the “Mean End Score (SEM)” value in experiment [1] is 0.21 (0.14)***. For the same compound, the “Mean Maximum Score (SEM)” value in experiment [1] was 0.33 (0.23)***. For the same compound, the “Median Day of Onset” value in experiment [1] is over 28.0 days. The “Mean EAE score” value in experiment [1] (Day 7), in experiment [1] (Day 8), in experiment [1] (Day 9), in experiment [1] (Day 10), in experiment [1] (Day 11) and in experiment [1] (Day 12) was 0.00 each time. The “Mean EAE score” value in experiment [1] (Day 13) was 0.00; in experiment [1] (Day 14) it was 0.00; in experiment [1] (Day 15), 0.00; in experiment [1] (Day 16), 0.00; in experiment [1] (Day 17) it was 0.00; in experiment [1] (Day 18), 0.13. In addition, the “Mean EAE score” value is listed as 0.25 in experiment [1] (Day 19); 0.25 in experiment [1] (Day 20); 0.29 in experiment [1] (Day 21); 0.33 in experiment [1] (Day 22); 0.29 in experiment [1] (Day 23); 0.29 in experiment [1] (Day 24). The “Mean EAE score” value in experiment [1] (Day 25), in experiment [1] (Day 26), in experiment [1] (Day 27) and in experiment [1] (Day 28) was 0.21 in each case. The “Mean Body Weight” value is on record as 20.3 g in the experiment “EAE study: body weight” (Day 0); 19.9 g in the experiment “EAE study: body weight” (Day 2); 21.2 g in the experiment “EAE study: body weight” (Day 5); 21.3 g in “EAE study: body weight” (Day 7); 21.8 g in the experiment “EAE study: body weight” (Day 9); 21.5 g in “EAE study: body weight” (Day 12). Further, the “Mean Body Weight” value came to 21.6 g in “EAE study: body weight” (Day 14); 21.6 g in “EAE study: body weight” (Day 16); 21.6 g in the experiment “EAE study: body weight” (Day 19); 21.7 g in the experiment “EAE study: body weight” (Day 21); 22.0 g in the experiment “EAE study: body weight” (Day 23); 21.9 g in the experiment “EAE study: body weight” (Day 27). The “Mean Body Weight” value in “EAE study: body weight” (Day 28) was found to be 22.0 g; in the experiment “EAE study: body weight” (Day −1) it was 20.2 g. In addition, the “Mean Body Weight (% of Day −1)” value in the experiment “EAE study: body weight” (Day 0) is reported as 100.7 % of Day −1; in “EAE study: body weight” (Day 2) it was 98.4 % of Day −1; in the experiment “EAE study: body weight” (Day 5), 105.1 % of Day −1; in the experiment “EAE study: body weight” (Day 7), 105.4 % of Day −1; in the experiment “EAE study: body weight” (Day 9), 108.2 % of Day −1; in “EAE study: body weight” (Day 12) it was 106.5 % of Day −1. Besides, the “Mean Body Weight (% of Day −1)” value is 107.2 % of Day −1 in the experiment “EAE study: body weight” (Day 14); 107.0 % of Day −1 in “EAE study: body weight” (Day 16); 106.9 % of Day −1 in “EAE study: body weight” (Day 19); 107.5 % of Day −1 in the experiment “EAE study: body weight” (Day 21); 109.3 % of Day −1 in “EAE study: body weight” (Day 23); 108.3 % of Day −1 in “EAE study: body weight” (Day 27). In addition, the “Mean Body Weight (% of Day −1)” value in the experiment “EAE study: body weight” (Day 28) is on record as 108.9 % of Day −1; in the experiment “EAE study: body weight” (Day −1), 100.0 % of Day −1. Also, the “Mean Body Weight Change (% of Day −1)” value in the experiment “EAE study: body weight” (FTY720, mean end body weight) is recorded as 108.9*** % of Day −1.

The values are drawn from US20260217701A1, “SELECTIVE BET INHIBITORS AND USES THEREOF” (Tay Therapeutics Limited, priority 2022, published 2026).
